The results in this text go back to ChEMBL document CHEMBL4673222, “Discovery of a Bioactive Inhibitor with a New Scaffold for Cystathionine γ-Lyase” (J Med Chem, 2019).

Experiment [1] has as its target T1, Cystathionine gamma-lyase (Homo sapiens, UniProt P32929). Kind of experiment: Non-competitive inhibition of human CSE using varying levels of PLP and fixed L-Cys as substrate.
Experiment [2] deals with T2, Cystathionine beta-synthase (Homo sapiens, UniProt P35520).
T2 sequence (P35520 whole entry): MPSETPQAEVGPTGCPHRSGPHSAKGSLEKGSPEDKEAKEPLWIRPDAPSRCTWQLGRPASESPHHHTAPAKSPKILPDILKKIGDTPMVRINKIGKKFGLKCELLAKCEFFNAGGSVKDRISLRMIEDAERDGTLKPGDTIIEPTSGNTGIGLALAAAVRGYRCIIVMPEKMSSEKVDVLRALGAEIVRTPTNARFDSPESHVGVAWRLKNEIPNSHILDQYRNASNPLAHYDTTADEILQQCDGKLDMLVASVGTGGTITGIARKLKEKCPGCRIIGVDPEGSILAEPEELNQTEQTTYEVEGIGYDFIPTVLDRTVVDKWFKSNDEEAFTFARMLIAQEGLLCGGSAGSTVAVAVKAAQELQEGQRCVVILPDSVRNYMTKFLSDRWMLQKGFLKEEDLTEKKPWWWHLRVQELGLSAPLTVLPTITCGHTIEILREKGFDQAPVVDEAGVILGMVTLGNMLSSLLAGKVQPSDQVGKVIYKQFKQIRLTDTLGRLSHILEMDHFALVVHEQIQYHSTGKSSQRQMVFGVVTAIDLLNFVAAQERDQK
As to the kind of experiment: Inhibition of human CBS by methylene blue method.

In experiment [3] the test system is Cystathionine gamma-lyase (Homo sapiens), P32929 [R119A]. Kind of experiment: Inhibition of human CSE R119A mutant expressed in HEK293T cells assessed as reduction in H2S contents at 200 to 500 uM by lead acetate assay. The experiment is classed as cell-based. The conditions noted are these: dose 200-500 µM.
Sequence of Cystathionine gamma-lyase (Homo sapiens), P32929 [R119A] (P32929 whole entry R119A): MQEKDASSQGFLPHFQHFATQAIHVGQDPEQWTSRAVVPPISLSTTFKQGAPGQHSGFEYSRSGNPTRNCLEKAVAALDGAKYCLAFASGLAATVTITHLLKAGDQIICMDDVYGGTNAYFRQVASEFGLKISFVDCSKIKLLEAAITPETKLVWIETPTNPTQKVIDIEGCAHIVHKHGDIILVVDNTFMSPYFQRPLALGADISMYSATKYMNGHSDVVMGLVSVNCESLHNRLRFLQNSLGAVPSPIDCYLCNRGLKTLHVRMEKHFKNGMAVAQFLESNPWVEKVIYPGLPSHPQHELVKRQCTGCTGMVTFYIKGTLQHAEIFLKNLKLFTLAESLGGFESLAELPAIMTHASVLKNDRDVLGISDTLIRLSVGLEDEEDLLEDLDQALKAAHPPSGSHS
Experiment [4] is filed under the species Homo sapiens. As to the kind of experiment: Selectivity index, ratio of Ki for human CSE R119A mutant to Ki for wild type human CSE.
Experiment [5] has as its target T2, Cystathionine beta-synthase. As to the kind of experiment: Inhibition of CBS (unknown origin) by methylene blue method.
The species entered for experiment [6] is Homo sapiens. Kind of experiment: Selectivity index, ratio of IC50 for human CSE R119A mutant to IC50 for wild type human CSE.
Experiment [7] addresses T1, Cystathionine gamma-lyase. Kind of experiment: Inhibition of human CSE expressed in mouse RAW264.7 cells assessed as reduction in amount of released H2S level at 20 to 50 uM by lead acetate method. The format is cell-based. The note with it: dose 20-50 µM.
The subject of experiment [8] is Cystathionine gamma-lyase (Homo sapiens), P32929 [Y114F]. Kind of experiment: Inhibition of human CSE Y114F mutant expressed in HEK293T cells assessed as reduction in H2S contents at 200 to 500 uM by lead acetate assay. The format is cell-based. The note with it: dose 200-500 µM.
Experiment [9] is filed under the species Homo sapiens. Kind of experiment: Selectivity index, ratio of IC50 for human CSE R119K mutant expressed in HEK293T cells to IC50 for wild type human CSE expressed in HEK293T cells. The format is cell-based.
The species entered for experiment [10] is Homo sapiens. As to the kind of experiment: Selectivity index, ratio of Ki for human CSE Y114F mutant to Ki for wild type human CSE.
The target in experiment [11] is T1, Cystathionine gamma-lyase. Kind of experiment: Non-covalent reversible inhibition of human CSE.
Experiment [12] is filed under the species Homo sapiens. As to the kind of experiment: Selectivity index, ratio of IC50 for human CSE Y114F mutant expressed in HEK293T cells to IC50 for wild type human CSE expressed in HEK293T cells. The experiment is classed as cell-based.
The subject of the next experiment is Rattus norvegicus. Kind of experiment: Inhibition of CSE in Sprague-Dawley rat model of hemorrhagic shock assessed as increase in plasma H-cys level at 50 mg/kg, ip after 45 mins by ELISA. The experiment is classed as functional, organism-based. (In general: ELISA stands for enzyme-linked immunosorbent assay.)
The target of experiment [13] is T1, Cystathionine gamma-lyase. Kind of experiment: Effect on PLP interaction with human CSE assessed as effect on spectra of CSE-bound PLP.

A word on the IC50: it is the concentration that inhibits the measured activity by half. A low value points to higher potency.

Active and inactive are the calls of the source. No cut-off for these calls is given here.

T1 sequence (P32929 whole entry): as the sequence (P32929 whole entry R119A) above, with A119R counted along it
Sequence of Cystathionine gamma-lyase (Homo sapiens), P32929 [Y114F] (P32929 whole entry Y114F): as the sequence (P32929 whole entry R119A) above, with Y114F, A119R counted along it

On to `O=C(O)C1=CC(=C(c2ccc(O)c(C(=O)O)c2)c2ccc(O)c(C(=O)O)c2)C=CC1=O` [AURINTRICARBOXYLIC ACID], for which the alphaKi in [1] was 4.2 µM. Moreover, the IC50 was found to be 54.2 µM in experiment [2] and 20 µM in experiment [5]. Besides, the inhibition result in experiment [3] and in [8] was “inactive” throughout. Further, the Ratio Ki came to 52 in the experiment filed under Homo sapiens [4] and 44.5 in the experiment filed under Homo sapiens [10]. The values for the Ratio IC50 in the experiment listed under Homo sapiens [6], in the experiment listed under Homo sapiens [9] and in the experiment listed under Homo sapiens [12] were 32, 6 and 6, respectively. The inhibition result (in experiment [7]; in [11]; in the experiment on Rattus norvegicus) was “Active” in each case. Moreover, in experiment [13], the result was inactive.
